The values that follow come from patent US4902814A, “Fluorobenzyl esters” (Imperial Chemical Industries PLC, priority 1986, dated 1990).

Where two headings read alike, the source gives them in different places.

Holding throughout (format): in vivo
Assay [1] has as its system Tetranychus urticae (spider mites - adults). The experiment in a line: Mortality test on Tetranychus urticae adults (TUa), contact. As to conditions: topical, 72 h, read-out: TUa grading of mortality; for mortality at 100 ppm: rate 100 ppm. The protocol:
(§1) The activity of the Product was determined using a variety of insect pests. The Product was used in the form of liquid preparations containing from 100 to 500 parts per million (ppm) by weight of the Product. The preparations were made by dissolving the Product in acetone and diluting the solutions with water containing 0.1% by weight of a wetting agent sold under the trade name "SYNPERONIC" NX until the liquid preparations contained the required concentration of the Product. "SYNPERONIC" is a Registered Trade Mark.
(§2) The test procedure adopted with regard to each pest was basically the same and comprised supporting a number of the pests on a medium which was usually a host plant or a foodstuff on which the pests feed, and treating either or both the pests and the medium with the preparations. The mortality of the pests was then assessed at periods usually varying from one to seven days after the treatment.
(§3) The results of the tests are given in Table III for each of the Products, at the rate in parts per million given in the second column, as a grading of mortality designated as A, B or C wherein A indicates 80-100% mortality or knockdown, B indicates 50-79% mortality or knockdown and C indicates less than 50% mortality or knockdown.
(§4) In Table III the pest organism used is designated by a letter code and the pests species, the support medium or food, and the type and duration of test is given in Table II.
(spider mites - adults)

The subject of assay [2] is Tetranychus urticae (spider mites - ova). Briefly: Mortality test on Tetranychus urticae ova (TUe), contact. The settings on record: topical, 144 h, read-out: TUe grading of mortality; for mortality at 100 ppm: rate 100 ppm. The protocol:
as §1, §2, §3, §4

In assay [3] the test system is Myzus persicae (aphids). The experiment in a line: Mortality test on Myzus persicae (MP), contact. The settings on record: topical, 72 h, read-out: MP grading of mortality; for mortality at 100 ppm: rate 100 ppm. The procedure:
as §1, §2, §3, §4

Assay [4] has as its system Nephotettix cincticeps (green leaf hopper - nymphs). Briefly: Mortality test on Nephotettix cincticeps (NC), contact. The settings on record: topical, 72 h, rice plant, 3 days, read-out: NC grading of mortality; for mortality at 100 ppm: rate 100 ppm; for mortality at 500 ppm: rate 500 ppm. The protocol:
as §1, §2, §3, §4
NC Nephotettix cincticeps

Assay [5] concerns Musca domestica (houseflies - adults). The experiment in a line: Mortality test on Musca domestica (MD), contact. As to conditions: topical, 24 h, read-out: MD grading of mortality; for mortality at 100 ppm: rate 100 ppm. The procedure:
as §1, §2, §3, §4

Assay [6] deals with Blattella germanica (cockroach nymphs). Briefly: Mortality test on Blattella germanica (BG), residual. As to conditions: 72 h, read-out: BG grading of mortality. The procedure: as §1, §2, §3, §4
The subject of assay [7] is Heliothis virescens (tobacco budworm - larvae). Briefly: Mortality test on Heliothis virescens (HV), residual. As to conditions: 72 h, read-out: HV grading of mortality; for mortality at 100 ppm: rate 100 ppm. The procedure: as §1, §2, §3, §4
(tobacco budworm - larvae)

For assay [8], the system named is Spodoptera exigua (lesser army worm - larvae). Briefly: Mortality test on Spodoptera exigua (SP), residual. As to conditions: 72 h, read-out: SP grading of mortality. The protocol: as §1, §2, §3, §4
(lesser army worm - larvae)

Assay [9] relates to Diabrotica balteata (rootworm larvae). Briefly: Mortality test on Diabrotica balteata (DB), residual. The settings on record: 72 h, read-out: DB grading of mortality. The protocol: as §1, §2, §3, §4
Where [10] appears, read: French bean leaf, contact, 3 days.
[11] abbreviates: French bean leaf, contact, 6 days.
The mark [12] stands for this setting: Chinese cabbage leaf, contact, 3 days.
[13] abbreviates: cotton wool/sugar, contact, 1 day.
[14] abbreviates: rate 500 ppm, French bean leaf, contact, 6 days.
[15] abbreviates: rate 500 ppm, Chinese cabbage leaf, contact, 3 days.
The mark [16] stands for this setting: rate 500 ppm, cotton wool/sugar, contact, 1 day.
Setting [17] is: rate 500 ppm, plastic pot, residual, 3 days.
[18] abbreviates: rate 500 ppm, cotton leaf, residual, 3 days.
[19] abbreviates: rate 500 ppm, filter paper/maize seed, residual, 3 days.
Where [20] appears, read: rate 500 ppm, French bean leaf, contact, 3 days.

The term mortality denotes the share of the test organisms that died. For the molecule `CC1(C)[C@H](C(=O)OC(C#N)c2ccc(F)c(Cc3ccccc3)c2)[C@@H]1/C=C(\Cl)C(F)(F)F` (some centres unmarked) [VI], the mortality at 100 ppm is 80 to 100% in assay [1] (setting [10]); under 50% in assay [2] (setting [11]); 80 to 100% in [3] (setting [12]); 80 to 100% in assay [4]; 80 to 100% in assay [5] (setting [13]); 80 to 100% in [6]. Further, the mortality at 100 ppm in assay [7] (cotton leaf, residual, 3 days) lay within 80 to 100%; in [8] (in Gossypium hirsutum), 80 to 100%; in assay [9] (in Zea mays), 80 to 100%.

Turning to `CC1(C)C(C(=O)OCc2ccc(F)c(Cc3ccccc3)c2)C1(C)C` [VII], the mortality at 500 ppm was under 50% in assay [2] (setting [14]); 80 to 100% in assay [3] (setting [15]); 80 to 100% in [5] (setting [16]); 80 to 100% in [6] (setting [17]); 80 to 100% in assay [7] (setting [18]); under 50% in assay [8] (setting [18]). In addition, in assay [9] (setting [19]), the mortality at 500 ppm fell in the range of 80 to 100%.

For `CC1(C)[C@H](/C=C(\Cl)C(F)(F)F)[C@@H]1C(=O)OCc1ccc(F)c(Cc2ccccc2)c1` (relative stereo) [I], the mortality at 500 ppm in assay [1] (setting [20]), in assay [2] (setting [14]), in assay [3] (setting [15]), in [5] (setting [16]), in assay [6] and in assay [7] (setting [18]) was 80 to 100% throughout. For the same molecule, the mortality at 500 ppm in assay [8] (in Gossypium hirsutum) and in [9] (in Zea mays) was 80 to 100% each time.

In the case of `CC1(C)[C@H](C=C(Cl)Cl)[C@H]1C(=O)OCc1ccc(F)c(Cc2ccccc2)c1` (relative stereo) [IV], the mortality at 100 ppm is under 50% in [1] (setting [10]); under 50% in [2] (setting [11]); 80 to 100% in assay [3] (setting [12]); 80 to 100% in assay [4]; 80 to 100% in assay [5] (setting [13]); under 50% in assay [6]. Further, the mortality at 100 ppm in [7] (cotton leaf, residual, 3 days) fell in the range of 80 to 100%; in assay [8] (in Gossypium hirsutum) it was 80 to 100%; in assay [9] (in Zea mays), 80 to 100%.

On to `CC1(C)C(C=C(F)F)C1C(=O)OCc1ccc(F)c(Cc2ccccc2)c1` (racemic) [III], for which the mortality at 100 ppm in assay [1] (setting [10]) was 50 to 79%; in assay [2] (setting [11]), under 50%; in assay [3] (setting [12]) it was 80 to 100%; in [5] (setting [13]), 80 to 100%; in assay [6], under 50%; in assay [7] (cotton leaf, residual, 3 days), 80 to 100%. Moreover, the mortality at 100 ppm in assay [8] (in Gossypium hirsutum) and in assay [9] (in Zea mays) was 80 to 100% throughout.

Take `CC(C)(C)c1ncc(C2C(C(=O)OC(C#N)c3ccc(F)c(Cc4ccccc4)c3)C2(C)C)cn1` (centres unmarked) [XII]: the mortality at 500 ppm was 80 to 100% in assay [1]; 50 to 79% in assay [2] (in Phaseolus vulgaris); 50 to 79% in assay [3] (in Brassica rapa); under 50% in [5]; under 50% in assay [6] (setting [17]); under 50% in [7] (in Gossypium hirsutum). Also, the mortality at 500 ppm in [8] (setting [18]) is under 50%; in [9] (setting [19]), 80 to 100%.

With `CC1(C)C(C=C(Br)Br)C1C(=O)OCc1ccc(F)c(Cc2ccccc2)c1` (racemic) [X], the mortality at 500 ppm was under 50% in assay [2] (setting [14]); 80 to 100% in assay [3] (setting [15]); 80 to 100% in assay [5] (setting [16]); 80 to 100% in assay [6]; 80 to 100% in assay [7] (setting [18]); 80 to 100% in [8] (in Gossypium hirsutum). In addition, the mortality at 500 ppm in assay [9] (in Zea mays) was in the range of 80 to 100%.

Take `CC(OC(=O)C1C(C=C(Cl)C(F)(F)F)C1(C)C)c1ccc(F)c(Cc2ccccc2)c1` (centres unmarked) [XIII]: the mortality at 500 ppm in assay [1] (setting [20]), in assay [3] (setting [15]), in [4], in [5] (setting [16]), in assay [6] and in assay [7] (setting [18]) was 80 to 100% each time. In addition, the mortality at 500 ppm in assay [8] (in Gossypium hirsutum) and in assay [9] (in Zea mays) was 80 to 100% throughout.

Regarding `CC(C)(C)c1ncc([C@@H]2[C@@H](C(=O)OCc3ccc(F)c(Cc4ccccc4)c3)C2(C)C)cn1` (relative stereo) [XI], the mortality at 500 ppm in assay [1] was 80 to 100%; in assay [2] (in Phaseolus vulgaris) it was 80 to 100%; in [3] (in Brassica rapa) it was 80 to 100%; in [5], 50 to 79%; in [6] (setting [17]) it was under 50%; in assay [7] (in Gossypium hirsutum) it was 80 to 100%. The mortality at 500 ppm in assay [8] (setting [18]) and in assay [9] (setting [19]) was 80 to 100% throughout.

For `CC1(C)[C@H](C=C(C(F)(F)F)C(F)(F)F)[C@H]1C(=O)OCc1ccc(F)c(Cc2ccccc2)c1` (relative stereo) [IX], the mortality at 500 ppm is 80 to 100% in assay [1] (setting [20]); under 50% in assay [2] (setting [14]); 80 to 100% in assay [3] (setting [15]); 80 to 100% in assay [5] (setting [16]); 80 to 100% in [6]; 80 to 100% in assay [7] (setting [18]). Besides, the mortality at 500 ppm in assay [8] (in Gossypium hirsutum) and in assay [9] (in Zea mays) was 80 to 100% each time.

In the case of `CC1(C)[C@H](C(=O)OC(C#N)c2ccc(F)c(Cc3ccccc3)c2)[C@@H]1/C=C(\Cl)C(F)(F)F` (relative stereo) [II], the mortality at 500 ppm in assay [1] (setting [20]), in assay [2] (setting [14]), in [3] (setting [15]), in assay [5] (setting [16]), in assay [6] and in [7] (setting [18]) was 80 to 100% each time. The mortality at 500 ppm in assay [8] (in Gossypium hirsutum) and in assay [9] (in Zea mays) was 80 to 100% in each case.

`CC1(C)[C@H](C(=O)OCc2ccc(F)c(Cc3ccccc3)c2)[C@@H]1/C=C(\Cl)C(F)(F)F` [V]: the mortality at 500 ppm in assay [1] (setting [20]), in assay [2] (setting [14]), in assay [3] (setting [15]), in assay [4], in assay [5] (setting [16]) and in assay [7] (setting [18]) was 80 to 100% each time. In addition, the mortality at 500 ppm in [8] (in Gossypium hirsutum) and in [9] (in Zea mays) was 80 to 100% throughout.

Consider `CC(C)=CC1C(C(=O)OCc2ccc(F)c(Cc3ccccc3)c2)C1(C)C` (centres unmarked) [VIII], for which the mortality at 500 ppm was under 50% in assay [1] (setting [20]); under 50% in [2] (setting [14]); 80 to 100% in assay [3] (setting [15]); 80 to 100% in assay [5] (setting [16]); under 50% in assay [6]; 80 to 100% in assay [7] (setting [18]). Further, the mortality at 500 ppm in [8] (in Gossypium hirsutum) and in assay [9] (in Zea mays) was 80 to 100% in each case.
